This is an account of results in patent US9334264B2, “NAMPT inhibitors” (AbbVie Inc., priority 2012, dated 2016).

In assay [1] the target is NAMPT (human, recombinant, C-terminally His-tagged) (Homo sapiens, UniProt P43490). Nature of the assay: Time-Resolved Fluorescence Resonance Energy Transfer (TR-FRET) Binding Assay of NAMPT. Particulars: absence of substrates; 6.8 nM NAMPT, 200 nM probe, equilibrated 3 hours. The procedure: Determination of the utility of compounds having Formula (I) as binders to and inhibitors of NAMPT was performed using Time-Resolved Fluorescence Resonance Energy Transfer (TR-FRET) binding assays.
NAMPT (human, recombinant, C-terminally His-tagged), sequence (P43490 whole entry): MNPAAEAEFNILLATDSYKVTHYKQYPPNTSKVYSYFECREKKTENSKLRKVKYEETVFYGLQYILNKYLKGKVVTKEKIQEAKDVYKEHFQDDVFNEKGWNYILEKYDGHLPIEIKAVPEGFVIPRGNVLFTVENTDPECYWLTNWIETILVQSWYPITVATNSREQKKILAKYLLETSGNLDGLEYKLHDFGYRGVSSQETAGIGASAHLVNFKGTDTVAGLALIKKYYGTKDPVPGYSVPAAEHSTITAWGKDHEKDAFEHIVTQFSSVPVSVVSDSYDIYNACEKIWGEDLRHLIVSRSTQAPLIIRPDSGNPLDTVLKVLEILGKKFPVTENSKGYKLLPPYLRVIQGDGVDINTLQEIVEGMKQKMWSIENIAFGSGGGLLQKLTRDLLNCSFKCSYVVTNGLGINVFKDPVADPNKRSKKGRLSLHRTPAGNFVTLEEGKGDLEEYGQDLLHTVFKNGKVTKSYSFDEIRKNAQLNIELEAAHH
Time-Resolved Fluorescence Resonance Energy Transfer (TR-FRET) Binding Assay of NAMPT
Test compounds were serially diluted (typically 11 half log dilutions) in neat DMSO to 50× final concentrations prior to dilution with assay buffer (50 mM HEPES (NaOH), pH 7.5, 100 mM NaCl, 10 mM MgCl2, 1 mM DTT, 1% Glycerol) to 3× and 6% DMSO. Six μL were transferred to 384-well low-volume plates (Owens Corning #3673). To this, 12 μL of a 1.5× solution containing enzyme, probe and antibody were added. Final concentrations in the 18 μL reactions were 1× assay buffer, 2% DMSO, 6.8 nM NAMPT (human, recombinant, C-terminally His-tagged), 200 nM probe (a potent nicotinamide-competitive inhibitor conjugated to Oregon Green 488) and 1 nM Tb-anti-His antibody (Invitrogen #PV5895). Reactions were equilibrated at room temperature for 3 hours prior to reading on an Envision multi-label plate reader (Perkin Elmer; Ex=337 nm, Em=520 and 495 nm). Time-resolved FRET ratios (Em520/Em495) were normalized to controls, plotted as a function of compound concentration and fit with the four-parameter logistic equation to determine IC50s.
For orientation: TR-FRET usually uses a lanthanide donor and a delayed reading to cut background.

Assay [2] addresses NAMPT (Homo sapiens, UniProt P43490). Kind of assay: Time-Resolved Fluorescence Resonance Energy Transfer (TR-FRET) Binding Assay of NAMPT with PRPP. Particulars: 200 μM PRPP and 2.5 mM ATP; 2 nM NAMPT, 2 nM probe, equilibrated 16 hours. The procedure: Time-Resolved Fluorescence Resonance Energy Transfer (TR-FRET) Binding Assay of NAMPT with PRPP
Compound handling and data processing were identical to the assay in the absence of substrates (above). Final concentrations were 1× assay buffer, 2% DMSO, 2 nM NAMPT, 2 nM probe, 1 nM Tb-anti-His antibody (Invitrogen #PV5895), 200 μM PRPP and 2.5 mM ATP. Reactions were equilibrated for 16 hours prior to measurement to allow for potential enzymatic modification of test compounds.

Each structure is given as a SMILES string.

NAMPT, sequence (P43490 whole entry): as above

`O=C(NCCCn1ccnc1)c1cnc(N(Cc2ccc(F)cc2)Cc2ccc(-c3cccnc3)cc2)s1` [Example 1, 2-{(4-fluorobenzyl)[4-(pyridin-3-yl)benzyl]amino}-N-[3-(1H-imidazol-1-yl)propyl]-1,3-thiazole-5-carboxamide]: in assay [1], the IC50 (commonly the concentration needed to halve the response being measured) came out at 63.8 nM. Take `CN(Cc1ccc(-c2cccnc2)cc1)c1ncc(C(=O)NCCCn2ccnc2)s1` [Example 2, N-[3-(1H-imidazol-1-yl)propyl]-2-{methyl[4-(pyridin-3-yl)benzyl]amino}-1,3-thiazole-5-carboxamide]: the IC50 was determined as 7560 nM in assay [1] and 4.29 nM in assay [2].

In the case of `CN(Cc1ccc(F)cc1)c1ncc(C(=O)NCCCn2ccnc2)s1` [Example 3, 2-[(4-fluorobenzyl)(methyl)amino]-N-[3-(1H-imidazol-1-yl)propyl]-1,3-thiazole-5-carboxamide], in assay [2], the IC50 amounted to 71.5 nM. In the case of `O=C(NCCCn1ccnc1)c1cnc(N(Cc2ccc(F)cc2)C(=O)CC2CCOCC2)s1` [Example 4, 2-[(4-fluorobenzyl)(tetrahydro-2H-pyran-4-ylacetyl)amino]-N-[3-(1H-imidazol-1-yl)propyl]-1,3-thiazole-5-carboxamide], the IC50 stood at 1220 nM in assay [1] and 0.548 nM in assay [2]. The matching figures for `O=C(NCCCn1ccnc1)c1cnc(N(Cc2ccc(F)cc2)C(=O)CC2CCCCC2)s1` [Example 5, 2-[(cyclohexylacetyl)(4-fluorobenzyl)amino]-N-[3-(1H-imidazol-1-yl)propyl]-1,3-thiazole-5-carboxamide]: 720 nM and 0.461 nM. For `O=C(NCCCn1ccnc1)c1cnc(N(CCCN2CCOCC2)Cc2ccc(F)cc2)s1` [Example 7, 2-{(4-fluorobenzyl)[3-(morpholin-4-yl)propyl]amino}-N-[3-(1H-imidazol-1-yl)propyl]-1,3-thiazole-5-carboxamide] the same measures were 1610 nM and 486 nM.

As for `O=C(NCCCn1ccnc1)c1cnc(N(CCCN2CCCCC2)Cc2ccc(F)cc2)s1` [Example 8, 2-{(4-fluorobenzyl)[3-(piperidin-1-yl)propyl]amino}-N-[3-(1H-imidazol-1-yl)propyl]-1,3-thiazole-5-carboxamide], the IC50 in assay [1] was 3160 nM; in assay [2], 290 nM. In the case of `O=C(NCCCn1ccnc1)c1cnc(N(CCN2CCCC2)Cc2ccc(F)cc2)s1` [Example 9, 2-{(4-fluorobenzyl)[2-(pyrrolidin-1-yl)ethyl]amino}-N-[3-(1H-imidazol-1-yl)propyl]-1,3-thiazole-5-carboxamide], the IC50 in assay [2] stood at 641 nM.

Consider `CC(C)N1CCN(CCN(Cc2ccc(F)cc2)c2ncc(C(=O)NCCCn3ccnc3)s2)CC1` [Example 10, 2-[(4-fluorobenzyl){2-[4-(propan-2-yl)piperazin-1-yl]ethyl}amino]-N-[3-(1H-imidazol-1-yl)propyl]-1,3-thiazole-5-carboxamide], for which the IC50 in assay [1] was 281 nM; in assay [2], 19.6 nM. As for `N#Cc1ccc(C(=O)N(Cc2ccc(F)cc2)c2ncc(C(=O)NCCCn3ccnc3)s2)cc1` [Example 11, 2-[(4-cyanobenzoyl)(4-fluorobenzyl)amino]-N-[3-(1H-imidazol-1-yl)propyl]-1,3-thiazole-5-carboxamide], the IC50 was found to be 476 nM in assay [1] and 0.47 nM in assay [2]. For `O=C(NCCCn1ccnc1)c1cnc(N(Cc2ccc(F)cc2)C(=O)c2cccc(Cl)c2)s1` [Example 12, 2-[(3-chlorobenzoyl)(4-fluorobenzyl)amino]-N-[3-(1H-imidazol-1-yl)propyl]-1,3-thiazole-5-carboxamide], the IC50 was 303 nM in assay [1] and 0.241 nM in assay [2]. The matching figures for `O=C(NCCCn1ccnc1)c1cnc(N(Cc2ccc(F)cc2)C(=O)c2ccc(F)cc2)s1` [Example 13, 2-[(4-fluorobenzoyl)(4-fluorobenzyl)amino]-N-[3-(1H-imidazol-1-yl)propyl]-1,3-thiazole-5-carboxamide]: 1750 nM and 0.403 nM. In assay [2], `O=C(NCCCn1ccnc1)c1cnc(N(Cc2ccc(F)cc2)Cc2c(Cl)ccc3c2OCO3)s1` [Example 14, 2-{[(5-chloro-1,3-benzodioxol-4-yl)methyl](4-fluorobenzyl)amino}-N-[3-(1H-imidazol-1-yl)propyl]-1,3-thiazole-5-carboxamide] came in with an IC50 of 338 nM.

For the compound `O=C(NCCCn1ccnc1)c1cnc(N(Cc2ccc(F)cc2)Cc2ccc(Cl)cc2)s1` [Example 15, 2-[(4-chlorobenzyl)(4-fluorobenzyl)amino]-N-[3-(1H-imidazol-1-yl)propyl]-1,3-thiazole-5-carboxamide], the IC50 in assay [1] came to 3820 nM; in assay [2] it was 92.1 nM.

In the case of `O=C(NCCCn1ccnc1)c1cnc(N(Cc2ccc(F)cc2)Cc2ccccc2Cl)s1` [Example 16, 2-[(2-chlorobenzyl)(4-fluorobenzyl)amino]-N-[3-(1H-imidazol-1-yl)propyl]-1,3-thiazole-5-carboxamide], the IC50 in assay [1] is 4720 nM; in assay [2], 217 nM. For `O=C(NCCCn1ccnc1)c1cnc(N(Cc2ccc(F)cc2)Cc2cc(Cl)ccc2Cl)s1` [Example 17, 2-[(2,5-dichlorobenzyl)(4-fluorobenzyl)amino]-N-[3-(1H-imidazol-1-yl)propyl]-1,3-thiazole-5-carboxamide], the IC50 in assay [2] turned out to be 1220 nM. `CNC(=O)CN(Cc1ccc(F)cc1)c1ncc(C(=O)NCCCn2ccnc2)s1` [Example 18, 2-{(4-fluorobenzyl)[2-(methylamino)-2-oxoethyl]amino}-N-[3-(1H-imidazol-1-yl)propyl]-1,3-thiazole-5-carboxamide]: the IC50 was 4820 nM in assay [1] and 814 nM in assay [2]. Take `CC(C)NC(=O)CN(Cc1ccc(F)cc1)c1ncc(C(=O)NCCCn2ccnc2)s1` [Example 19, 2-{(4-fluorobenzyl)[2-oxo-2-(propan-2-ylamino)ethyl]amino}-N-[3-(1H-imidazol-1-yl)propyl]-1,3-thiazole-5-carboxamide]: the IC50 in assay [2] was found to be 12500 nM. `CN(C)C(=O)CN(Cc1ccc(F)cc1)c1ncc(C(=O)NCCCn2ccnc2)s1` [Example 20, 2-{[2-(dimethylamino)-2-oxoethyl](4-fluorobenzyl)amino}-N-[3-(1H-imidazol-1-yl)propyl]-1,3-thiazole-5-carboxamide] yielded an IC50 in assay [2] of 12500 nM. `CCN(CC)C(=O)CN(Cc1ccc(F)cc1)c1ncc(C(=O)NCCCn2ccnc2)s1` [Example 21, 2-{[2-(diethylamino)-2-oxoethyl](4-fluorobenzyl)amino}-N-[3-(1H-imidazol-1-yl)propyl]-1,3-thiazole-5-carboxamide]: the concentration for half-maximal inhibition (IC50) in assay [1] is 996 nM; in assay [2] it was 505 nM. For `O=C(NCCCn1ccnc1)c1cnc(N(CC(=O)N2CCOCC2)Cc2ccc(F)cc2)s1` [Example 22, 2-{(4-fluorobenzyl)[2-(morpholin-4-yl)-2-oxoethyl]amino}-N-[3-(1H-imidazol-1-yl)propyl]-1,3-thiazole-5-carboxamide] the same measures were 384 nM and 60.2 nM. As for `COCC(=O)N(Cc1ccc(F)cc1)c1ncc(C(=O)NCCCn2ccnc2)s1` [Example 24, 2-[(4-fluorobenzyl)(methoxyacetyl)amino]-N-[3-(1H-imidazol-1-yl)propyl]-1,3-thiazole-5-carboxamide], the IC50 in assay [1] was 4140 nM; in assay [2] it was 0.682 nM. For `COCCC(=O)N(Cc1ccc(F)cc1)c1ncc(C(=O)NCCCn2ccnc2)s1` [Example 25, 2-[(4-fluorobenzyl)(3-methoxypropanoyl)amino]-N-[3-(1H-imidazol-1-yl)propyl]-1,3-thiazole-5-carboxamide] the same measures were 1630 nM and 1.4 nM. In assay [2], `CN(C)CC(=O)N(Cc1ccc(F)cc1)c1ncc(C(=O)NCCCn2ccnc2)s1` [Example 26, 2-[(N,N-dimethylglycyl)(4-fluorobenzyl)amino]-N-[3-(1H-imidazol-1-yl)propyl]-1,3-thiazole-5-carboxamide] showed an IC50 of 1.21 nM. In the case of `O=C(NCCCn1ccnc1)c1cnc(N(Cc2ccc(F)cc2)C(=O)CN2CC=CCC2)s1` [Example 27, 2-[(3,6-dihydropyridin-1(2H)-ylacetyl)(4-fluorobenzyl)amino]-N-[3-(1H-imidazol-1-yl)propyl]-1,3-thiazole-5-carboxamide], the values for the half-maximal inhibitory concentration (IC50) in assay [1] and in assay [2] were over 10000 nM and 0.632 nM, respectively.

For the compound `CC1CCN(CC(=O)N(Cc2ccc(F)cc2)c2ncc(C(=O)NCCCn3ccnc3)s2)CC1` [Example 28, 2-{(4-fluorobenzyl)[(4-methylpiperidin-1-yl)acetyl]amino}-N-[3-(1H-imidazol-1-yl)propyl]-1,3-thiazole-5-carboxamide], the IC50 in assay [1] is 7020 nM; in assay [2], 0.833 nM.
